Results on 20 compounds are retold here after US20070208005A1, “TETRAHYDROBENZAZEPINES AS ANTAGONISTS AND/OR REVERSE AGONISTS OF THE HISTAMINE H3 RECEPTOR” (priority 2004, published 2007).

The target in the assay is T1, histamine H3 receptor (Homo sapiens, UniProt Q9Y5N1).
T1 construct: expressed in transfected cells; host or cells: CHO K1 cells (pSwitch/pGene GeneSwitch system, mifepristone-induced), clone 3H3; membranes
T1 sequence (Q9Y5N1 whole entry): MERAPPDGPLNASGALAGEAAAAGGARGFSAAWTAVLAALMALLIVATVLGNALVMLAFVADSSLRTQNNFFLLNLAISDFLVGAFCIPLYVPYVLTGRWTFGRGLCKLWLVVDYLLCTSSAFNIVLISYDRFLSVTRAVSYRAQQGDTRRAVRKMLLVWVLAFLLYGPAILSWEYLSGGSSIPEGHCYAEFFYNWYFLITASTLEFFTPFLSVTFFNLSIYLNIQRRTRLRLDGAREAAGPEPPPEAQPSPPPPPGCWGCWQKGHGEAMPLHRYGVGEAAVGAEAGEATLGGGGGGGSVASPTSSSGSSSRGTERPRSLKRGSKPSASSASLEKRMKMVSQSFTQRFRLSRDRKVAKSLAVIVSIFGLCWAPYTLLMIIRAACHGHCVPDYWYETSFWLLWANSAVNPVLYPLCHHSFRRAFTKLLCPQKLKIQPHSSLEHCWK
Put plainly: Histamine H3 functional antagonist assay ([35S]-GTPγS SPA on membranes of H3 cells). As to conditions: membrane prepared from cultured H3 cells (CHO K1, human H3); histamine at EC80; averages of a number of experiments; read-out: functional pKi (fpKi), H3 functional antagonist assay (converted). The format is biochemical. An excerpt:
A membrane preparation containing histamine H3 receptors may be prepared in accordance with the following procedures:
(i) Generation of Histamine H3 Cell Line
DNA encoding the human histamine H3 gene (Huvar, A. et al. (1999) Mol. Pharmacol. 55(6), 1101-1107) was cloned into a holding vector, pcDNA3.1 TOPO (InVitrogen) and its cDNA was isolated from this vector by restriction digestion of plasmid DNA with the enzymes BamH1 and Not-1 and ligated into the inducible expression vector pGene (InVitrogen) digested with the same enzymes. The GeneSwitch™ system (a system where in transgene expression is switched off in the absence of an inducer and switched on in the presence of an inducer) was performed as described in U.S. Pat. Nos. 5,364,791; 5,874,534; and 5,935,934. Ligated DNA was transformed into competent DH5α E. coli host bacterial cells and plated onto Luria Broth (LB) agar containing Zeocin™ (an antibiotic which allows the selection of cells expressing the sh ble gene which is present on pGene and pSwitch) at 50 μg ml^−1. Colonies containing the re-ligated plasmid were identified by restriction analysis. DNA for transfection into mammalian cells was prepared from 250 ml cultures of the host bacterium containing the pGeneH3 plasmid and isolated using a DNA preparation kit (Qiagen Midi-Prep) as per manufacturers guidelines (Qiagen). CHO K1 cells previously transfected with the pSwitch regulatory plasmid (InVitrogen) were seeded at 2×10e6 cells per T75 flask in Complete Medium, containing Hams F12 (GIBCOBRL, Life Technologies) medium supplemented with 10% v/v dialysed foetal bovine serum, L-glutamine, and hygromycin (100 μg ml^−1), 24 hours prior to use. Plasmid DNA was transfected into the cells using Lipofectamine plus according to the manufacturers guidelines (InVitrogen). 48 hours post transfection cells were placed into complete medium supplemented with 500 μg ml^−1 Zeocin™.
10-14 days post selection 10 nM Mifepristone (InVitrogen), was added to the culture medium to induce the expression of the receptor. 18 hours post induction cells were detached from the flask using ethylenediamine tetra-acetic acid (EDTA; 1:5000; InVitrogen), following several washes with phosphate buffered saline pH 7.4 and resuspended in Sorting Medium containing Minimum Essential Medium (MEM), without phenol red, and supplemented with Earles salts and 3% Foetal Clone II (Hyclone). Approximately 1×10e7 cells were examined for receptor expression by staining with a rabbit polyclonal antibody, 4a, raised against the N-terminal domain of the histamine H3 receptor, incubated on ice for 60 minutes, followed by two washes in sorting medium. Receptor bound antibody was detected by incubation of the cells for 60 minutes on ice with a goat anti rabbit antibody, conjugated with Alexa 488 fluorescence marker (Molecular Probes). Following two further washes with Sorting Medium, cells were filtered through a 50 μm Filcon™ (BD Biosciences) and then analysed on a FACS Vantage SE Flow Cytometer fitted with an Automatic Cell Deposition Unit. Control cells were non-induced cells treated in a similar manner. Positively stained cells were sorted as single cells into 96-well plates, containing Complete Medium containing 500 μg ml^−1 Zeocin™ and allowed to expand before reanalysis for receptor expression via antibody and ligand binding studies. One clone, 3H3, was selected for membrane preparation.
(ii) Membrane Preparation from Cultured Cells
All steps of the protocol are carried out at 4° C. and with pre-cooled reagents. The cell pellet is resuspended in 10 volumes of homogenisation buffer (50 mM N-2-hydroxyethylpiperazine-N′-2-ethanesulfonic acid (HEPES), 1 mM ethylenediamine tetra-acetic acid (EDTA), pH 7.4 with KOH, supplemented with 10e-6M leupeptin (acetyl-leucyl-leucyl-arginal; Sigma L2884), 25 μg/ml bacitracin (Sigma B0125), 1 mM phenylmethylsulfonyl fluoride (PMSF) and 2×10e-6M pepstain A (Sigma)). […]
Turning to `CNC(=O)c1cnc(Cc2ccc3c(c2)CCN(C2CCCC2)CC3)cn1` [Example E35, 5-[(3-Cyclopentyl-2,3,4,5-tetrahydro-1H-3-benzazepin-7-yl)methyl]-N-methyl-2-pyrazinecarboxamide], the Ki is under 3.16 nM.

`CCNC(=O)c1cnc(Cc2ccc3c(c2)CCN(C2CCC2)CC3)cn1` [Example E34, 5-[(3-Cyclobutyl-2,3,4,5-tetrahydro-1H-3-benzazepin-7-yl)methyl]-N-ethyl-2-pyrazinecarboxamide]: the Ki is under 3.16 nM.

With `O=C(c1ccc(Cc2ccc3c(c2)CCN(C2CCC2)CC3)cc1)N1CCCCC1` [Example E18, 3-Cyclobutyl-7-{[4-(1-piperidinylcarbonyl)phenyl]methyl}-2,3,4,5-tetrahydro-1H-3-benzazepine], the Ki was under 3.16 nM.

Take `O=C1CCCN1c1ccc(Cc2ccc3c(c2)CCN(C2CCC2)CC3)cc1` [Example E28, 1-{4-[(3-Cyclobutyl-2,3,4,5-tetrahydro-1H-3-benzazepin-7-yl)methyl]phenyl}-2-pyrrolidinone]: the Ki was under 3.16 nM.

Regarding `N#Cc1ccc(Cc2ccc3c(c2)CCN(C2CCC2)CC3)cn1` [Example E12, 5-[(3-Cyclobutyl-2,3,4,5-tetrahydro-1H-3-benzazepin-7-yl)methyl]-2-pyridinecarbonitrile], the Ki is under 3.16 nM.

On to `CC(C)NC(=O)c1ccc(Cc2ccc3c(c2)CCN(C2CCC2)CC3)cc1` [Example E51, 4-[(3-cyclobutyl-2,3,4,5-tetrahydro-1H-3-benzazepin-7-yl)methyl]-N-(1-methylethyl)benzamide], for which the Ki is under 3.16 nM.

As for `Cc1noc(-c2cnc(Cc3ccc4c(c3)CCN(C3CCC3)CC4)cn2)n1` [Example E15, 3-Cyclobutyl-7-{[5-(3-methyl-1,2,4-oxadiazol-5-yl)-2-pyrazinyl]methyl}-2,3,4,5-tetrahydro-1H-3-benzazepine], the Ki was under 3.16 nM.

With `CNC(=O)c1ccc(Cc2ccc3c(c2)CCN(C2CCC2)CC3)cn1` [Example E26, 5-[(3-Cyclobutyl-2,3,4,5-tetrahydro-1H-3-benzazepin-7-yl)methyl]-N-methyl-2-pyridinecarboxamide], the Ki is under 3.16 nM.

Take `O=C(c1ccc(Cc2ccc3c(c2)CCN(C2CCC2)CC3)nc1)N1CCCC1` [Example E43, 3-cyclobutyl-7-{[5-(1-pyrrolidinylcarbonyl)-2-pyridinyl]methyl}-2,3,4,5-tetrahydro-1H-3-benzazepine]: the Ki is under 3.16 nM.

As to `O=C1CCCN1c1ccc(Cc2ccc3c(c2)CCN(C2CCC2)CC3)cn1` [Example E29, 1-{5-[(3-Cyclobutyl-2,3,4,5-tetrahydro-1H-3-benzazepin-7-yl)methyl]-2-pyridinyl}-2-pyrrolidinone], the Ki is under 3.16 nM.

On to `N#Cc1ccc(NC(=O)c2ccc(Cc3ccc4c(c3)CCN(C3CCC3)CC4)cn2)cc1` [Example E56, N-(4-cyanophenyl)-5-[(3-cyclobutyl-2,3,4,5-tetrahydro-1H-3-benzazepin-7-yl)methyl]-2-pyridinecarboxamide], for which the Ki was under 3.16 nM.

For `c1cnc(Cc2ccc3c(c2)CCN(C2CCC2)CC3)cn1` [Example E30, 3-Cyclobutyl-7-(2-pyrazinylmethyl)-2,3,4,5-tetrahydro-1H-3-benzazepine], the Ki is under 3.16 nM.

Turning to `N#Cc1ccc(Cc2ccc3c(c2)CCN(C2CCC2)CC3)nc1` [Example E41, 6-[(3-cyclobutyl-2,3,4,5-tetrahydro-1H-3-benzazepin-7-yl)methyl]-3-pyridinecarbonitrile], the Ki was under 3.16 nM.

Consider `c1cnn(-c2ccc(Cc3ccc4c(c3)CCN(C3CCC3)CC4)cc2)c1` [Example E59, 3-cyclobutyl-7-{[4-(1H-pyrazol-1-yl)phenyl]methyl}-2,3,4,5-tetrahydro-1H-3-benzazepine], for which the Ki was under 0.316 nM.

In the case of `O=C(c1ccc(Cc2ccc3c(c2)CCN(C2CCC2)CC3)cn1)N1CCCC1` [Example E54, 3-cyclobutyl-7-{[6-(1-pyrrolidinylcarbonyl)-3-pyridinyl]methyl}-2,3,4,5-tetrahydro-1H-3-benzazepine], the Ki was under 3.16 nM.

As for `c1ncn(-c2ccc(Cc3ccc4c(c3)CCN(C3CCC3)CC4)cc2)n1` [Example E60, 3-cyclobutyl-7-{[4-(1H-1,2,4-triazol-1-yl)phenyl]methyl}-2,3,4,5-tetrahydro-1H-3-benzazepine], the Ki was under 0.316 nM.

As for `NC(=O)c1ccc(Cc2ccc3c(c2)CCN(C2CCC2)CC3)cc1` [Example E46, 4-[(3-cyclobutyl-2,3,4,5-tetrahydro-1H-3-benzazepin-7-yl)methyl]benzamide], the Ki was under 0.316 nM.

Take `N#Cc1ccc(Cc2ccc3c(c2)CCN(C2CCC2)CC3)cc1` [Example E1, 4-[(3-Cyclobutyl-2,3,4,5-tetrahydro-1H-3-benzazepin-7-yl)methyl]benzonitrile]: the Ki is under 0.316 nM.

With `CNC(=O)c1cnc(Cc2ccc3c(c2)CCN(C2CCC2)CC3)cn1` [Example E33, 5-[(3-Cyclobutyl-2,3,4,5-tetrahydro-1H-3-benzazepin-7-yl)methyl]-N-methyl-2-pyrazinecarboxamide], the Ki was under 0.316 nM.

In the case of `Cc1noc(-c2ccc(Cc3ccc4c(c3)CCN(C3CCC3)CC4)nc2)n1` [Example E16, 3-Cyclobutyl-7-{[5-(3-methyl-1,2,4-oxadiazol-5-yl)-2-pyridinyl]methyl}-2,3,4,5-tetrahydro-1H-3-benzazepine], the Ki is under 3.16 nM.
